Measured values taken from patent publication US4048430A, “Mercaptopseudotrisaccharides” (SmithKline Corporation, priority 1975, dated 1977).
Values after ≈ are worked out from the molar mass of the structure shown. Where two headings read alike, the source gives them in different places.

Tested on: Pseudomonas aeruginosa
Test: standard agar inclusion test screen, minimum inhibitory concentration against Pseudomonas
Format: cell-based
Details: read-out: Minimum inhibitory concentrations (MIC)
Protocol: Compounds of this invention where R, R', R" and Y are hydrogen have antibacterial activity against a variety of bacteria and are especially active against Pseudomonas. Minimum inhibitory concentrations (MIC), as obtained in a standard agar inclusion test screen, range from 25 to 200 μg/ml against Pseudomonas aeruginosa.

[1] = standard agar inclusion test, Pseudomonas (aeruginosa)

Compound	MIC [1] [µg/mL]	MIC (Pseudomonas aeruginosa) [µg/mL]
NC[C@H]1O[C@H](O[C@H]2[C@H](O)[C@@H](O)[C@H](N)C[C@@H]2N)[C@H](N)[C@@H](S)[C@@H]1O [2-deoxy-4-O-(2,6-diamino-3-mercapto-2,3,6-trideoxy-α-D-glucopyranosyl)-D-streptamine]	63 (≈ 186 µM)	
NC[C@H]1O[C@H](O[C@H]2[C@H](O)[C@@H](O)[C@H](N)C[C@@H]2N)[C@H](N)[C@@H](O)[C@@H]1S [2-deoxy-4-O-(2,6-diamino-4-mercapto-2,4,6-trideoxy-α-D-glucopyranosyl)-D-streptamine]	25 (≈ 73.9 µM)	
NC[C@H]1O[C@H](O[C@H]2[C@H](O)[C@@H](O)[C@H](N)C[C@@H]2N)[C@H](N)[C@@H](O)[C@@H]1O [neamine, 2-deoxy-4-O-(2,6-diamino-2,6-dideoxy-α-D-glucopyranosyl)-D-streptamine, reference compound]		> 200
